The record followed here is US8946195B2, “Bicyclic methyl amine derivatives as sphingosine-1 phosphate receptors modulators” (Allergan, Inc., priority 2011, dated 2015).

The target in the test is T1, human S1P1 receptor (Homo sapiens, UniProt P21453).
T1 construct: expressed in transfected cells; membranes used
T1 sequence (P21453 whole entry): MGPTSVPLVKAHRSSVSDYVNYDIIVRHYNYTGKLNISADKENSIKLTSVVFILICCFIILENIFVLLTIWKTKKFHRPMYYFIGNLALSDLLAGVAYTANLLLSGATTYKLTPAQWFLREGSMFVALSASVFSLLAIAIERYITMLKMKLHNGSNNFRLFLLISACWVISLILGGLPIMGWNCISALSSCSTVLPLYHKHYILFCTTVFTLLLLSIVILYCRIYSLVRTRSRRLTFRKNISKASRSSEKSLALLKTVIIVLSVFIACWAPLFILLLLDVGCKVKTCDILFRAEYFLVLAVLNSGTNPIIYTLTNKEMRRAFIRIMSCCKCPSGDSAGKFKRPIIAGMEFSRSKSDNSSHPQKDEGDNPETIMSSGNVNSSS
As to the kind of experiment: GTP γ35S binding assay for S1P1 activity. Format: biochemical. The settings on record: membranes of cells stably expressing the S1P1 receptor, agonist potency. The protocol: Compounds were synthesized and tested for S1P1 activity using the GTP γ^35S binding assay. These compounds may be assessed for their ability to activate or block activation of the human S1P1 receptor in cells stably expressing the S1P1 receptor.
GTP γ35S binding was measured in the medium containing (mM) HEPES 25, pH 7.4, MgCl2 10, NaCl 100, dithitothreitol dithitothreitol 0.5, digitonin 0.003%, 0.2 nM GTP γ35S, and 5 μg membrane protein in a volume of 150 μl. Test compounds were included in the concentration range from 0.08 to 5,000 nM unless indicated otherwise. Membranes were incubated with 100 μM 5′-adenylylimidodiphosphate adenylylimmidodiphosphate for 30 min, and subsequently with 10 μM GDP for 10 min on ice. Drug solutions and membrane were mixed, and then reactions were initiated by adding GTP γ35S and continued for 30 min at 25° C. Reaction mixtures were filtered over Whatman GF/B filters under vacuum, and washed three times with 3 mL of ice-cold buffer (HEPES 25, pH7.4, MgCl2 10 and NaCl 100). Filters were dried and mixed with scintillant, and counted for 35S activity using a β-counter. Agonist-induced GTP γ35S binding was obtained by subtracting that in the absence of agonist. Binding data were analyzed using a non-linear regression method. In case of antagonist assay, the reaction mixture contained 10 nM […] in the presence of test antagonist at concentrations ranging from 0.08 to 5000 nM.
The compound `CCCCCCc1ccc(-c2ccc(CNCCCP(=O)(O)O)c3occc23)cc1` [Compound 2, [3-({[4-(4-hexylphenyl)-1-benzofuran-7-yl]methyl}amino)propyl]phosphonic acid] came in with an EC50 of 0.17 µM.
Compound `CCCCCCc1ccc(-c2ccc(CNCCCP(=O)(O)O)c3c2CCC3)cc1` [Compound 1, [3-({[7-(4-hexylphenyl)-2,3-dihydro-1H-inden-4-yl]methyl}amino)propyl]phosphonic acid] showed an EC50 of 0.0371 µM.
In turn, `CCCCCCc1ccc(-c2ccc(CNCCCP(=O)(O)O)c3ccoc23)cc1` [Compound 3, [3-({[7-(4-hexylphenyl)-1-benzofuran-4-yl]methyl}amino)propyl]phosphonic acid] returned an EC50 of 0.0444 µM.

A word on the EC50: it is the concentration giving half of the maximal effect. A higher EC50 goes with weaker potency.
